{"source": "ChEMBL document CHEMBL5252550", "about": "“DYRK1A kinase inhibition with emphasis on neurodegeneration: A comprehensive evolution story-cum-perspective” (Eur J Med Chem, 2018)", "key": {"[1]": {"target": "T1, Dual specificity tyrosine-phosphorylation-regulated kinase 1A (Homo sapiens, UniProt Q13627)", "experiment": "Inhibition of DYRK1A (unknown origin) autophosphorylation"}, "[2]": {"target": "T1, Dual specificity tyrosine-phosphorylation-regulated kinase 1A", "experiment": "Inhibition of DYRK1A (unknown origin)"}, "[3]": {"target": "T1, Dual specificity tyrosine-phosphorylation-regulated kinase 1A", "experiment": "Binding affinity to DYRK1A (unknown origin) assessed as inhibition constant"}, "[4]": {"target": "Dual specificity tyrosine-phosphorylation-regulated kinase 1B (Homo sapiens, UniProt Q9Y463)", "sequence (Q9Y463 whole entry)": "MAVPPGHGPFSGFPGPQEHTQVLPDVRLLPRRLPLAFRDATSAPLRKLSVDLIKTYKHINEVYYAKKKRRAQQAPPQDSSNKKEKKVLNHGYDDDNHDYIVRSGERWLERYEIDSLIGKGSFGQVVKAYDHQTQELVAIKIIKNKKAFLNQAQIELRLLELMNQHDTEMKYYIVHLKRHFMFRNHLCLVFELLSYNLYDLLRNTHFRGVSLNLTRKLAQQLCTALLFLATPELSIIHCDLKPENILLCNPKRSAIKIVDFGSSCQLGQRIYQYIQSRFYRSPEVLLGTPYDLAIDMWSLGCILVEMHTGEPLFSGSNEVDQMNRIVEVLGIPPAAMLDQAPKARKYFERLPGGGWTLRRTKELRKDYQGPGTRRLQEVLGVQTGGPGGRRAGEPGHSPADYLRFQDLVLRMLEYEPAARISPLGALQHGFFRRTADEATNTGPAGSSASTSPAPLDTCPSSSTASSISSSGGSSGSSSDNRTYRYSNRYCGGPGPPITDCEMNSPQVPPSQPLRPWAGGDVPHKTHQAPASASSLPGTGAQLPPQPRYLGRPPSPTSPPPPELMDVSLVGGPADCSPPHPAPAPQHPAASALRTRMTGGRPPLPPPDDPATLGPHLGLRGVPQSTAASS", "experiment": "Inhibition of DYRK1B (unknown origin)"}, "[5]": {"target": "T2, Dual specificity tyrosine-phosphorylation-regulated kinase 2 (Homo sapiens) (UniProt Q92630)", "T2 sequence (whole entry)": "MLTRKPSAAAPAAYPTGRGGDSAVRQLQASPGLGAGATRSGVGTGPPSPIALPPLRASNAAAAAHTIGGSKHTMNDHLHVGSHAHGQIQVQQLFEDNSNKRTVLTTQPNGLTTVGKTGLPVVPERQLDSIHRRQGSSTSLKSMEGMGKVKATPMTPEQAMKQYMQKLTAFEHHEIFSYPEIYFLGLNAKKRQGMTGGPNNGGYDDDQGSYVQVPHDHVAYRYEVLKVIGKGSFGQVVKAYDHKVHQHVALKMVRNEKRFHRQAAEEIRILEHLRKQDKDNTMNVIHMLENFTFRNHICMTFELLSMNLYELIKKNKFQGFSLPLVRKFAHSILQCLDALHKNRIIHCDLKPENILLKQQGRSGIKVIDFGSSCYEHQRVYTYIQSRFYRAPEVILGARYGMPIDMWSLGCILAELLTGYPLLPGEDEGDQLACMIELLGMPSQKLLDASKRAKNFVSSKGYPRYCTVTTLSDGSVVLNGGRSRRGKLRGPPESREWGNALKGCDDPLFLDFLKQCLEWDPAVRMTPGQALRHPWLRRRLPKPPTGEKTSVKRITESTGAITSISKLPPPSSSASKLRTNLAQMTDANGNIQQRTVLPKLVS", "experiment": "Inhibition of DYRK2 (unknown origin) at 10 uM relative to control"}, "[6]": {"target": "T3, Dual specificity tyrosine-phosphorylation-regulated kinase 3 (Homo sapiens) (UniProt O43781)", "T3 sequence (whole entry)": "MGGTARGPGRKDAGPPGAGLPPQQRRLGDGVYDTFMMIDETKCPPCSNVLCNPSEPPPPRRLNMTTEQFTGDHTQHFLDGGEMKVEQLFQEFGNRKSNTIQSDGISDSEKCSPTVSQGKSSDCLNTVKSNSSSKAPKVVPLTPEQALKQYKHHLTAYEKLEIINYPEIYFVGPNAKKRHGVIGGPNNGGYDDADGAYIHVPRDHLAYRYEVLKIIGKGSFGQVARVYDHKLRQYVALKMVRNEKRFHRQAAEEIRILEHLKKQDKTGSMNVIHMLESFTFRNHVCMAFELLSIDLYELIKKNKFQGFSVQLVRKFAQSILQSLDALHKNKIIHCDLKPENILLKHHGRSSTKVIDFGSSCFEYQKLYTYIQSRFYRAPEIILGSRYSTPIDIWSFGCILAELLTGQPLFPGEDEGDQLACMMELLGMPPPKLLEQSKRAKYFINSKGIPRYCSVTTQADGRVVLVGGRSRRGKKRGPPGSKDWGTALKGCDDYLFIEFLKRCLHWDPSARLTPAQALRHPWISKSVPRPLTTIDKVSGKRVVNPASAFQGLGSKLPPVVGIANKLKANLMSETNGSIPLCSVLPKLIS", "experiment": "Inhibition of DYRK3 (unknown origin) at 10 uM relative to control"}, "[7]": {"tested_on": "CCN1/C(=C/C(C)=O)Sc2ccc(O)cc21", "experiment": "Competitive inhibition of DYRK1A (unknown origin) assessed as michaelis-constant (Km)", "settings": "Homo sapiens"}, "[8]": {"target": "T1, Dual specificity tyrosine-phosphorylation-regulated kinase 1A", "experiment": "Inhibition of DYRK1A (unknown origin) in presence of ATP"}, "[9]": {"target": "T4, Dual specificity tyrosine-phosphorylation-regulated kinase 2 (Homo sapiens, UniProt Q92630)", "T4 sequence (Q92630 whole entry)": "T2 sequence (whole entry)", "experiment": "Inhibition of DYRK2 (unknown origin)"}, "[10]": {"target": "Acetylcholinesterase (Homo sapiens, UniProt P22303)", "sequence (P22303 whole entry)": "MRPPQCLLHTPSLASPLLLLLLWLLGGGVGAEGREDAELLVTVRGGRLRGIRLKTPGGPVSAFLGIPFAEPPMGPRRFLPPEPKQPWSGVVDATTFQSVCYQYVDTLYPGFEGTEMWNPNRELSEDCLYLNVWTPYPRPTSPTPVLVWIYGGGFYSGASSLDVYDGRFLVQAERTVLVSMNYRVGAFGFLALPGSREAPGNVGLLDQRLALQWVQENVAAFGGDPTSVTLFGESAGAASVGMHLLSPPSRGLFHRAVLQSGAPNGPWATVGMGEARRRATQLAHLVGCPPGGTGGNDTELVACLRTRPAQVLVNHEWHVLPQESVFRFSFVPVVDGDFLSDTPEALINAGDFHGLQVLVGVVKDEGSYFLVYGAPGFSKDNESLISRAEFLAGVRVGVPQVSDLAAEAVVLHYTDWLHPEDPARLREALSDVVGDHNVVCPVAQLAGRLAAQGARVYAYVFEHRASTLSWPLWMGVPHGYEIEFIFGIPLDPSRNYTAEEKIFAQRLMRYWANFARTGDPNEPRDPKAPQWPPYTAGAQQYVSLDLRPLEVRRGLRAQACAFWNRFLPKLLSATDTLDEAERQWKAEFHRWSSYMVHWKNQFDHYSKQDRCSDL", "experiment": "Inhibition of AChE (unknown origin)"}}, "data": [{"compound": "COc1cc(/C=C2\\C(=O)NN(c3ccc(Cl)c(Cl)c3)C2=O)ccc1O", "values": [{"measurement": "IC50", "setting": "[1]", "result": 50000, "unit": "nM"}]}, {"compound": "CO[C@H]1[C@H](O)[C@@H](O)[C@H](n2c3c(Cl)cccc3c3c4c(c5c6cccc(Cl)c6[nH]c5c32)C(=O)NC4=O)O[C@@H]1CO", "note": "[REBECCAMYCIN]", "values": [{"measurement": "IC50", "setting": "[2]", "result": 19, "unit": "nM"}]}, {"compound": "CCOc1cc(/C=C2\\SC(=S)NC2=O)ccc1OC", "values": [{"measurement": "IC50", "setting": "[2]", "result": 60.2, "unit": "nM"}]}, {"compound": "O=C1c2ccc(O)c(O)c2C(=O)c2c(O)ccc(O)c21", "note": "[QUINALIZARIN]", "values": [{"measurement": "Ki", "setting": "[3]", "result": 5850, "unit": "nM"}]}, {"compound": "COC(=N)c1nc2ccc3ncnc(Nc4ccc(Cl)cc4Cl)c3c2s1", "values": [{"measurement": "IC50", "setting": "[4]", "result": 280, "unit": "nM"}]}, {"compound": "CCN1/C(=C/C(C)=O)Sc2ccc(O)cc21", "values": [{"measurement": "inhibition", "setting": "[5]", "result": "> 90", "unit": "%"}, {"measurement": "inhibition", "setting": "[6]", "result": "> 90", "unit": "%"}]}, {"compound": "Dual specificity tyrosine-phosphorylation-regulated kinase 1A (Homo sapiens) (from UniProt Q13627)", "values": [{"measurement": "Km", "setting": "[7]", "result": 37, "unit": "µM"}]}, {"compound": "CCC(=O)O[C@@H](C/C=C(\\C)C(=O)OC)[C@H](C(=O)OC)[C@@H](OC(C)=O)[C@@H](C[C@H](C)[C@H](OC(=O)CC(C)C)[C@@H]1C[C@H](C)C[C@]2(C[C@H](C)C[C@@](O)(CC(C)=O)O2)O1)OC(=O)CC(C)C", "values": [{"measurement": "IC50", "setting": "[2]", "result": "> 10000", "unit": "nM"}]}, {"compound": "CN1CCc2cc3c(c4c2C1Cc1ccccc1-4)OCO3", "note": "(stereo not drawn) [ROEMERINE]", "values": [{"measurement": "IC50", "setting": "[2]", "result": 15000, "unit": "nM"}]}, {"compound": "Cc1cc(=O)oc2cc3cc(O)ccc3cc12", "values": [{"measurement": "IC50", "setting": "[8]", "result": 600, "unit": "nM"}]}, {"compound": "COC(=N)c1nc2ccc3ncnc(Nc4ccc(Br)cc4F)c3c2s1", "values": [{"measurement": "IC50", "setting": "[4]", "result": 220, "unit": "nM"}]}, {"compound": "COc1cccc(NC(=O)Nc2nnc(-c3ccncc3)s2)c1", "values": [{"measurement": "IC50", "setting": "[1]", "result": 2500, "unit": "nM"}]}, {"compound": "COc1ccc2c(c1)[nH]c1c(C)nccc12", "note": "[HARMINE]", "values": [{"measurement": "IC50", "setting": "[9]", "result": 1900, "unit": "nM"}, {"measurement": "IC50", "setting": "[10]", "result": 11300, "unit": "nM"}]}, {"compound": "N=C1NC(=O)/C(=C/c2ccc3c(c2)CCO3)S1", "values": [{"measurement": "IC50", "setting": "[2]", "result": 7.9, "unit": "nM"}]}, {"compound": "CCC(=O)O[C@@H](C/C=C(\\C)C(=O)OC)[C@H](C(=O)OC)[C@@H](OC(C)=O)[C@@H](C[C@H](C)[C@H](OC(=O)CC(C)C)[C@@H]1C[C@H](C)C[C@]2(C[C@H](C)C[C@](CC(C)=O)(OC(C)=O)O2)O1)OC(=O)CC(C)C", "values": [{"measurement": "IC50", "setting": "[2]", "result": "> 10000", "unit": "nM"}]}, {"compound": "Cc1cc(=O)oc2cc3c([N+](=O)[O-])c(O)ccc3cc12", "values": [{"measurement": "IC50", "setting": "[8]", "result": 15000, "unit": "nM"}]}]}
